Assay [1] concerns the target T1, BCAT2 (Homo sapiens, UniProt O15382).
T1 sequence (O15382 28-392): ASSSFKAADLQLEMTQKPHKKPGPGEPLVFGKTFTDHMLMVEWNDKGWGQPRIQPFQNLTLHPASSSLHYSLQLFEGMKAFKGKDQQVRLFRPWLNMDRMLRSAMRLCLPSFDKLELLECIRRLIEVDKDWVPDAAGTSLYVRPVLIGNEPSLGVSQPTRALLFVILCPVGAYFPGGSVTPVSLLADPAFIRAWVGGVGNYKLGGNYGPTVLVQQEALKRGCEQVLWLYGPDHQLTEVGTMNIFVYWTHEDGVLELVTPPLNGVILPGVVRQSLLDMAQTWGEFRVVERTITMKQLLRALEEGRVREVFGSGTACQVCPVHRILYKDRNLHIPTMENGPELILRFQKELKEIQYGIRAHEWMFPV
Put plainly: BCAT2 in vitro cell inhibition using engineered A549 cells (KMV cell assay, 13C6-KMV by LC-MS/MS). In kind it is cell-based. Also on record: The result was an engineered A549 cell line that expressed endogenous BCAT2; endogenous in cells; host or cells: A549 cells with MUT and BCAT1 knocked out by CRISPR/CAS9; key to BCAT2 Cell Inhibition: A: less than or equal to 0.100 μM; B: greater than 0.100 and less than or equal to 0.500 μM; C: greater than 0.500 and less than or equal to 1.000 μM; d: greater than 1.000 μM; E: no fit. Particulars: average where tested multiple times.

The target in assay [2] is T1, BCAT2. As to the kind of experiment: BCAT2 in vitro enzyme inhibition assay (resazurin/diaphorase-coupled fluorescence). In kind it is biochemical. The following applies: average where tested multiple times. The gist of the method:
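Coupled fluorescence readout: glutamate formed from L-leucine/α-ketoglutarate transamination drives GDH/NAD/diaphorase reduction of resazurin (Ex 540/Em 590). Human BCAT2 was first exposed 1 h at room temperature to compound, top final 100 μM in 3-fold, 10-point series; substrate reaction ran 1 h before SDS quench, in technical duplicate with DMSO max and enzyme-free min controls.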

pIC50: −log10 of the molar value.

What is called pIC50 is −log10 of the IC50, conventionally taken in molar units.

Take `CC(C)Cc1nc2cnc(N3CCC[C@H]3C#N)cc2n1[C@@H]1CCC[C@H](NC(=O)c2ncc(Cl)s2)C1` [Example 309, 5-chloro-N-((1S,3R)-3-(6-((S)-2-cyanopyrrolidin-1-yl)-2-isobutyl-1H-imidazo[4,5-c]pyridin-1-yl)cyclohexyl)thiazole-2-carboxamide]: the “BCAT2 Cell Inhibition” value in assay [1] was “E”. Moreover, in assay [2], the negative logarithm of the IC50 (pIC50) was less than 6.00.
With `COC[C@H]1CCCN1c1cc2c(cn1)nc(-c1ccccc1F)n2[C@@H]1CCC[C@H](NC(=O)c2ncc(Cl)s2)C1` [Example 198, 5-chloro-N-((1S,3R)-3-(2-(2-fluorophenyl)-6-((R)-2-(methoxymethyl)pyrrolidin-1-yl)-1H-imidazo[4,5-c]pyridin-1-yl)cyclohexyl)thiazole-2-carboxamide], the pIC50 in assay [1] and in assay [2] was less than 6.00 each time.
With `CC(C)Cc1nc2cnc(-n3cc(C(C)O)nn3)cc2n1[C@@H]1CCC[C@H](NC(=O)c2ncc(Cl)s2)C1` (stereo partly drawn) [Example 359, 5-chloro-N-((1S,3R)-3-(6-(4-(1-hydroxyethyl)-1H-1,2,3-triazol-1-yl)-2-isobutyl-1H-imidazo[4,5-c]pyridin-1-yl)cyclohexyl)thiazole-2-carboxamide], in assay [1], the “BCAT2 Cell Inhibition” value is on record as “E”. In assay [2], this compound showed a negative-log IC50 (pIC50) of 6.30 to 7.00.
`CO[C@@H]1C[C@H](NC(=O)c2ncc(Cl)s2)C[C@H](n2c(CC(C)C)nc3cnc(-c4nc[nH]n4)cc32)C1` (stereo in doubt) [Example 431, 5-chloro-N-((1R,3S,5R)-3-(2-isobutyl-6-(1H-1,2,4-triazol-3-yl)-1H-imidazo[4,5-c]pyridin-1-yl)-5-methoxycyclohexyl)thiazole-2-carboxamide]: the values for the pIC50 in assay [1] and in assay [2] were less than 6.00 and 6.00 to 6.30, respectively.
For the compound `CO[C@@H]1C[C@@H](NC(=O)c2ncc(Cl)s2)C[C@@H](n2c(-c3ccccc3F)nc3cnc(N4CCC[C@H]4CO)cc32)C1` [Example 430, 5-chloro-N-((1S,3R,5R)-3-(2-(2-fluorophenyl)-6-((S)-2-(hydroxymethyl)pyrrolidin-1-yl)-1H-imidazo[4,5-c]pyridin-1-yl)-5-methoxycyclohexyl)thiazole-2-carboxamide], the negative logarithm of the IC50 (pIC50) in assay [1] and in assay [2] was less than 6.00 each time.
Turning to `CO[C@@H]1C[C@@H](NC(=O)c2ncc(Cl)s2)C[C@@H](n2c(-c3ncccc3F)nc3cnc(-c4nc[nH]n4)cc32)C1` (single isomer, unassigned) [Example 443], the “BCAT2 Cell Inhibition” value in assay [1] is reported as “E”. In addition, the negative logarithm of the IC50 (pIC50) in assay [2] is less than 6.00.
In the case of `CS(=O)(=O)N1C[C@@H](NC(=O)c2ccc(Cl)s2)C[C@@H](n2c(-c3ccccc3F)nc3cnc(-c4nc[nH]n4)cc32)C1` [Example 459, 5-chloro-N-((3S,5R)-5-(2-(2-fluorophenyl)-6-(1H-1,2,4-triazol-3-yl)-1H-imidazo[4,5-c]pyridin-1-yl)-1-(methylsulfonyl)piperidin-3-yl)thiophene-2-carboxamide], the results for the negative logarithm of the IC50 (pIC50) in assay [1] and in assay [2] were 6.30 to 7.00 and not below 7.00, respectively.
For `Cn1ccc(-c2nc3cnc(-n4ccnn4)cc3n2[C@@H]2CCC[C@H](NC(=O)c3ncc(C(F)F)s3)C2)n1` [Example 42, 5-(difluoromethyl)-N-((1S,3R)-3-(2-(1-methyl-1H-pyrazol-3-yl)-6-(1H-1,2,3-triazol-1-yl)-1H-imidazo[4,5-c]pyridin-1-yl)cyclohexyl)thiazole-2-carboxamide], the “BCAT2 Cell Inhibition” value in assay [1] is listed as “E”. This compound also gave a pIC50 in assay [2] of less than 6.00.
Taken in the same sequence, the figures for `CC(C)C(F)(F)c1nc2cnc(-c3ccccn3)cc2n1[C@@H]1CCC[C@H](NC(=O)c2ncc(Cl)s2)C1` [Example 318, 5-chloro-N-((1S,3R)-3-(2-(1,1-difluoro-2-methylpropyl)-6-(pyridin-2-yl)-1H-imidazo[4,5-c]pyridin-1-yl)cyclohexyl)thiazole-2-carboxamide] were “E” and 6.00 to 6.30.

Values taken from patent US20260159512A1, “BCAT2 INHIBITORS” (AGIOS PHARMACEUTICALS, INC., priority 2021, published 2026).
